According to US12565665B2, “Compositions and methods for controlled mRNA translation and stability” (TRUSTEES OF BOSTON UNIVERSITY, priority 2022, dated 2026):

Legend:
Format in all cases: cell-based, human
UAG-MS2 editing reporter [1] = assay: Stop codon editing reporter (mCherry / mNeonGreen) co-transfected with ADAR variants, flow cytometry (median mNeonGreen to mCherry); settings: n=1
Source text: For the reporter system, the inventors used the fluorescent protein-epitope tag tandem fusions of mCherry-FLAG and HA-mNeonGreen as the upstream and downstream coding regions. Without DD editing activity, translation is terminated after mCherry-FLAG. Coexpression with MCP-ADAR2-DD was hypothesized to lead to binding of MCP-DD, stop codon UAG editing to UIG, and expression of mNeonGreen (FIG. 1B).
HEK 293 FT cells were co-transfected with plasmids expressing the reporter containing 2 UAG stop codons in the hairpin and a pcDNA3 construct encoding a fusion protein composed of MCP, ADAR2-DD (E488Q), and TagBFP.
Two days later, fluorescence microscopy images were taken of the cell populations. […] The inventors repeated the experiment and analyzed the samples by flow-cytometry.
The inventors transiently co-transfected HEK 293 FT cells with the mCherry-mNeonGreen reporter, MCP-ADAR2-DD variants containing different configurations of ALFA-tag insertions and NbALFA fusions, and uncaging constructs containing miRFP670 fused to ALFA. Without wishing to be bound by theory, it was hypothesized that the intramolecular interaction would inhibit the ADAR2-DD, but that the ALFA tag on the miRFP670 would displace the lower strength ALFA variants (PE and 78), and perhaps at high enough concentrations displace the intramolecular ALFA, and lead to increased editing.
The inventors then made an ADAR-DD variant with an inserted TEV protease cut site (amino acids ENLYFQG, SEQ ID NO: 286) between the C-terminus of ADAR2-DD and the N-terminus of SpyCatcher (FIG. 5C). The inventors co-transfected HEK 293 FT cells with the reporter construct, the ADAR-DD TEVcs variant, and the TEV protease and 48 hours later analyzed the transfected cells via flow cytometry (FIG. 5D-5E).
Mutated versions were then cloned and co-transfected with an editing reporter in the absence and presence of A-1331852, and absolute background and fold change upon drug addition were determined by flow cytometry (see e.g., FIG. 22d and table 11).

editable AUG reporters = assay: Destruction of an AUG start codon to IUG, EGFPd2/dTomato reporter, flow cytometry; settings: 48 hours post-transfection; n=3
Source text: To test this, an ADAR substrate was designed similar to the substrates tested above, but with an AUG codon in a dsRNA hairpin with a mismatch to promote the deamination of the correct adenine (see e.g., FIG. 28b). This scheme was similarly tested with both the high affinity MS2-C and lower affinity MS2-A variants by cloning these substrates into a pcDNA3 vector with a bidirectional CMV driving the expression of dTomato and EGFPd2 (see e.g., FIG. 28c).
HEK cells were co-transfected with the two different reporter constructs (MS2-C and MS2-A) and cither filler DNA, MCP-dADAR, or MCP-ADAR. 48 hours post-transfection, cells were lifted and analyzed by flow cytometry. Transfected cells were gated by dTomato, and the median EGFPd2-to-dTomato ratio for the population was calculated per replicate (n=3) by FLOWJO. 2-Way ANOVA was performed to determine significance.

GFP-GPI reporter = assay: AUA to AUI editing creating upstream in-frame signal sequence and HA tag, live imaging and HA staining
Source text: To test this, a reporter construct was designed that contained: an MS2-A editable AUA start codon upstream of the murine IgGκ signal sequence and HA epitope tag (SS-HA), an in frame AUG start codon, GFP, and the glycosylphosphatidylinositol (GPI) anchor sequence from Thymocyte differentiation antigen 1 (GPI in diagram) (see e.g., FIG. 27a). With this reporter, in the absence of editing, the majority of the translated product will be from the AUG codon directly upstream of GFP. This will lead to the translation product residing in the cytoplasm with a non-functional GPI anchor (as this post-translational modification (PTM) must occur in the endoplasmic reticulum (ER) lumen). Upon ADAR editing of the upstream AUA to AUI, translation will initiate upstream of the signal sequence, leading to co-translational translocation of HA-GFP-GPI into the ER lumen, the addition of the GPI anchor PTM, and presentation of HA-GFP on the plasma membrane (see e.g., FIG. 27b). With this construct, the editing can be monitored by either by microscopy (looking for ER & plasma membrane localization) or directly by immunostaining for the HA-tag.
HEK cells were co-transfected with the GFP-GPI reporter and either filler DNA, MCP-dADAR, or MCP-ADAR. A GFP-GPI with a functional start codon before the secretion signal was also transfected as a positive control (GFP-GPI Control). One day after transfection, HEK cells were imaged live, and then fixed and stained for HA tag with a primary anti-HA antibody and a secondary antibody that was conjugated to ALEXAFLUOR 647 (AF647).

UAG-MS2 editing reporter [2] = assay: Stop codon editing reporter (mCherry / mNeonGreen) co-transfected with ADAR variants, fluorescence microscopy / ImageJ quantification; settings: HEK 293 FT cells co-transfected with reporter containing 2 UAG stop codons in the hairpin; two days after transfection
[3] = tested on: Non-Stop-Decay reporter construct; assay: Non-stop decay OFF-switch reporter (dTomato-BiCMV-EGFPd2); settings: biCMV reporter with 2 UAG stop codons; 48-hours post-transfection
Source text: In order to do so, the inventors designed a synthetic transcript (FIG. 2A) where there is an open reading frame (green), 1 or more stop codons in an RNA-hairpin (dark gray), a specific RNA element (light gray), and a 3′UTR with no downstream stop codons prior to the polyadenylate (polyA) tail. The inventors created a reporter plasmid that contained a bidirectional CMV driving the expression dTomato on one transcript and EGFPd2, an editable stop codon, an MS2 operator, and a mutated rabbit-β-globin 3′UTR/poly A signal sequence lacking additional stop codons on the other transcript (FIG. 2B). In the absence of ADAR-DD activity, both dTomato and EGFPd2 should be translated and expressed. However, coexpression of MCP-ADAR2 should lead to editing of the only in-frame stop codon and the initiation of an endogenous process called non-stop decay, whereby the translating ribosome stalls on the polyA-tail and recruits Ski7 followed by exonucleases to destroy the mRNA (FIG. 2C). In this process, proteosomal degradation of the nascent, unreleased polypeptide also occurs. […]
As a final test, the inventors used the MS1(117A)/Mcl-1 variant with the dTomato-BiCMV-EGFPd2 reporter plasmid (FIG. 2B), which should lose EGFPd2 fluorescence with ADAR editing of the final stop codon.

For “MCP-linker-ADAR2(E488Q)-TagBFP [MCP-ADAR]”, the “Fold Change” value (UAG-MS2 editing reporter [1]; 1 μM vs 0 μM A-1331852, flow cytometry) was 1.03, the “Flow Cytometry Values, 0 μM (median of the ratio of mNeonGreen to mCherry)” value (UAG-MS2 editing reporter [1]; HEK cells co-transfected with ADAR reporter and ADAR variant, 0 μM A-1331852, two days after transfection, gated by BFP) was 0.9853 and the “Flow Cytometry Values, 1 μM (median of the ratio of mNeonGreen to mCherry)” value (UAG-MS2 editing reporter [1]; HEK cells co-transfected with ADAR reporter and ADAR variant, 1 μM A-1331852, two days after transfection, gated by BFP) was 1.0147. For the same substance, the “relative EGFPd2 levels, active vs inactive ADAR, MS2-A based AUG construct” value (editable AUG reporters) was “further, significant decrease in relative EGFPd2 levels”, the “translational efficiency, MS2-A based AUG construct” value (editable AUG reporters) was “significant decrease in translational efficiency” and the “HA tag staining of cells with AUA construct” value (GFP-GPI reporter; fixed, permeabilized, anti-HA and AF647 secondary) was “robust staining”. For the same substance, the “cellular distribution of GFP from AUA-SS-GFP-GPI, live imaging” value (GFP-GPI reporter; one day after transfection) was “looked very similar”, the “mNeonGreen expression, fluorescence microscopy” value (UAG-MS2 editing reporter [2]) was “mNeonGreen robustly expressed” and the “EGFPd2 expression relative to catalytically inactive DD, fluorescence microscopy” value [3] was “greatly decreased EGFPd2 expression levels”.
